# Laboratory results taken from patent US20090062255A1, “TUMOR-TARGETING EVALUATION METHODOLOGY AND COMPOUNDS RELATED THERETO” (THALLION PHARMACEUTICALS INC., priority 2007, published 2009).
# “Also recorded” adds a separate entry of the source.
# Tested on: prenylation of Ras, RAP1A and HDJ2 (FTase, GGTase I)
# Experiment: Protein prenylation immunoblot (FTase and GGTase I activities) in MCF-7 cells
# Format: cell-based, human
# Conditions: MCF7 cells, 3, 10 and 30 μM, 24 h; listed as ECO-4601
# Protocol: It was first verified if ECO-4601 interferes with Ras processing by monitoring FTase and GGTase I activities by immunoblot analysis. For these experiments, exponentially growing MCF-7 (human breast tumor) cells were seeded in 60 mm cell culture dishes at a density of 2.5×10^6 cells per dish. After an 18 h incubation period, ECO-4601 or lovastatin (Sigma-Aldrich, St. Louis, Mo.) were added at a final concentration of 3, 10 and 30 μM for 24 h. Cells were also treated with the vehicle alone (0.05% DMSO) for the same incubation periods. Treated and control cells were lysed in ice-cold RIPA buffer (50 mM Tris-HCl pH 7.4, 1% Triton X-100, 1% deoxycholate, 0.1% SDS, 150 mM NaCl, and 1 mM EDTA) containing protease inhibitors (Roche, Mannheim, Germany) and phosphatase inhibitors (EMD Biosciences, Calbiochem, San Diego, Calif.) for 20 minutes on ice. After lysis, cell debris was removed by centrifugation at 12000×g for 10 min. […] Bound antibodies were detected using horseradish peroxidase-conjugated secondary antibodies (Jackson ImmunoResearch Laboratories Inc., West Grove, Pa.) for 1 h at room temperature in 0.5% skim milk-TBS, visualized by treating the membranes with enhanced chemiluminescence reagents (Millipore, Mississauga, ON, Canada) and exposing them to BioMax Light Films (Kodak, Mississauga, ON, Canada). […]
smiles,measurement,value
"CC(C)=CCC/C(C)=C/CC/C(C)=C/CN1C(=O)c2cccc(O)c2Nc2c(O)cc(O)cc21 [Compound 1, 10-farnesyl-4,6,8-trihydroxy-5,10-dihydrodibenzo[b,e][1,4]diazepin-11-one]","effect on protein prenylation (mobility shift of Ras, RAP1A and HDJ2)",does not inhibit protein prenylation; also recorded: no effect
